Reference: US20230129485A1, “SYSTEM AND METHOD FOR DETERMINING MATERIAL PROPERTIES OF MOLECULAR SYSTEMS FROM AN AB-INITIO PARAMETERIZED FORCE-FIELD” (InterX, Inc., priority 2021, published 2023)
Where two headings read alike, the source gives them in different places.

Legend:
[1] = CHEX/H2O partition coefficient, experimental, cited from earlier work; for Exp (log D): Table 3; for logD Exp (logD): Table 4
[2] = Free energy of hydration predicted with the QM-parameterized force field model (ARROW FF), classical MD and PIMD simulation in a water box; conditions: for Arrow PIMD8 Error: absolute error vs Exp (hydration)
Source text: For example, the example QM-parameterized force-field molecular simulation process 400 can use Bennett Acceptance Ratio (BAR) to compute the free energy of hydration/solvation of the molecule in water or any other solvent. In some implementations, the analysis of the molecular dynamics simulations includes analysis, predication, and visualization of ensemble properties of atoms/molecules from atomic and molecular trajectories using the optimized parameters of the QM-parameterized force field model (i.e., the quantum mechanics rule-based reasoning technique) and the QM-parameterized force field model.
(§1) In some simulations of the QM-parameterized force field molecular simulation process, the molecules were placed in a water or cyclohexane box of size 32×32×32 Å3. Particle-Mesh Ewald (PME) algorithm was used to compute the electrostatic interactions. A 32×32×32 grid mesh and 5th power spline interpolation order can be used to compute the inverse PME sum. 9 Å cutoffs were used to compute the direct PME sum as well as the exchange and dispersion interactions. Bulk corrections were applied to account for distance cut-off of dispersion interactions. Solvation free energies were computed by decoupling the interactions between the solute and the solvent molecules. Electrostatic, exchange-repulsion and dispersion interactions were switched off simultaneously using a lambda-dependent scaling (a scaling factor power=2 was used) and a soft-coring algorithm (maximal soft-coring radius=1.5 Å, soft-coring radius scaling factor power=1). 15 lambda points unequally spaced (X=0, 0.05, 0.1, 0.2, 0.3, 0.4, 0.5, 0.6, 0.7, 0.75, 0.8, 0.85, 0.9, 0.95, 1.0) were used to decouple the solute-solvent intermolecular interactions.
(§2) In some simulations of the QM-parameterized force field molecular simulation process, energy minimization (10,000 steps) using the steepest descent algorithm was initially performed on all the simulation systems. This was followed by a 50 ps equilibration and 1 ns production runs in the isothermal-isobaric ensemble (NPT). […] Pressure was maintained at 1 atm using a MTTK barostat (relaxation time=5 ps). A Multiple Time Step (MTS) algorithm was used to integrate the equations of motion both for the classical and path-integral runs. […] The calculations were performed using the QM-parameterized force field model.
Using the QM-parameterized force field model, the QM-parameterized force field device can compute or predict the solvation free energies using both the Bennett acceptance ratio (BAR) and thermodynamic integration (TI) method with <dH/dλ> values interpolated by cubic splines. […] FIG. 7A illustrates a <dH/dλ> dependence for desolvation of Anthracene in water. FIG. 7B illustrates accumulated statistical errors for TI calculations of AG desolvation of Anthracene in water.

[3] = CHEX/H2O partition coefficient (log D) predicted with the QM-parameterized force field model (ARROW FF)
Source text: In some simulations, the example QM-parameterized force-field molecular simulation process includes using the functional form of the bonded interactions, with force constants and equilibrium values fitted to QM energies at the MP2/aug-cc-pVTZ level of theory. In some simulations, solvents of water and cyclohexane are selected. Cyclohexane (CHEX) is nonpolar and equilibrates relatively quickly. Reliable experimental data for both CHEX solvation free energies, as well as for the CHEX/H2O partition coefficients are used in these simulations.
In some example simulations, solutes containing neutral chemical functional groups, for example carboxylic acids, alkanes, alkenes, aromatics, aldehydes, ketones, alcohols, amides, esters, thiols, sulfides, disulfides and heterocycles, are used. The simulations were performed independently by four groups using their own respective computational resources and architectures, and then averaged. FIGS. 9A-9C show solvation and hydration free energies predictions of various solutes, using the QM-parameterized force field model, in some embodiments.
The straight line is a line of agreement between experimental and simulated/predicted values, and the gray bar is the range or chemical accuracy. […] The molecules here are a subset of those in a) because only those with experimental values for CHEX solvation can be included.

[4] = Free energy of solvation in cyclohexane predicted with the QM-parameterized force field model (ARROW FF), MD and PIMD; conditions: Table 4; for CHEX Arrow MD Error: error of MD cyclohexane solvation free energy vs experiment; for CHEX Arrow PIMD4 Error: error of PIMD4 cyclohexane solvation free energy vs experiment
Source text: Cyclohexane (CHEX) is nonpolar and equilibrates relatively quickly.
as §1, with “Particle-Mesh” for “In some simulations of the QM-parameterized force field molecular simulation process, the molecules were placed in a water or cyclohexane box of size 32×32×32 Å3. Particle-Mesh”
as §2
Using the QM-parameterized force field model, the QM-parameterized force field device can compute or predict the solvation free energies using both the Bennett acceptance ratio (BAR) and thermodynamic integration (TI) method with <dH/dλ> values interpolated by cubic splines.

[5] = experimental, cited from earlier work
[6] = Free energy of hydration by COSMO implicit solvent model (MolPro ver. 2012); conditions: absolute error vs Exp (hydration)
Method: (§3) Due to unavailability of free energy data for the original COSMO model, the free energies of solvation for the molecule dataset are calculated using MolPro ver. […] The comparisons to other implicit solvent models such as SMD, PCM and COSMO-RS are limited to the overlap of the molecules computed using QM-parameterized force field model. The free energies of hydration as predicted by these implicit solvent models (SMD, PCM) were received.

[7] = experimental, cited from earlier work; remark: listed apart in the source
[8] = Free energy of hydration by COSMO-RS
Method: as §3

[9] = Free energy of hydration by Polarizable Continuum Model (PCM); conditions: absolute error vs Exp (hydration)
Method: as §3

[10] = Free energy of hydration by Solvation Model Dielectric (SMD) implicit solvent model; conditions: absolute error vs Exp (hydration)
Method: as §3

[11] = implicit solvent model, values received; cited from earlier work
[12] = implicit solvent model, values received; cited from earlier work; remark: listed apart in the source
[13] = Free energy of hydration predicted by General Amber Force Field (GAFF), from literature; conditions: Table 5; error of GAFF hydration free energy vs experiment
[14] = Free energy of hydration predicted by polarizable AMOEBA force field, from literature; conditions: Table 5; error of AMOEBA hydration free energy vs experiment
[15] = Table 5; free energy of hydration, GAFF prediction taken from literature; cited from earlier work
[16] = Table 5; free energy of hydration, AMOEBA prediction taken from literature; cited from earlier work
[17] = Table 3, absolute error of MD hydration free energy vs experiment
[18] = Table 3, absolute error of PIMD8 hydration free energy vs experiment
[19] = Table 4, error of MD hydration free energy vs experiment
[20] = Table 4, error of PIMD8 hydration free energy vs experiment
[21] = Table 3, free energy of hydration
[22] = Table 4, neutral amino-acid analogues
[23] = Table 3, free energy of solvation in cyclohexane
[24] = Table 4, solvation free energy in cyclohexane

Row | SMILES | Exp (log D) [1] | logD Exp (logD) [1] | water Arrow MD Error [2, 17] [kcal/mol] | water Arrow PIMD8 Error [2, 18] [kcal/mol] | water Arrow MD Error [2, 19] [kcal/mol] | water Arrow PIMD8 Error [2, 20] [kcal/mol] | Arrow PIMD8 Error [2] [kcal/mol] | log D Arrow MD Error [3] | log D Arrow PIMD Error [3] | logD Arrow MD Error [3] | logD Arrow PIMD Error [3] | CHEX Arrow MD Error [4] [kcal/mol] | CHEX Arrow PIMD4 Error [4] [kcal/mol] | water Exp (hydration) [5, 21] [kcal/mol] | water Exp (hydration) [5, 22] [kcal/mol] | COSMO/Molpro Error [6] [kcal/mol] | CHEX Exp (solvation) [7, 23] [kcal/mol] | CHEX Exp (solvation) [7, 24] [kcal/mol] | COSMO-RS error [8] [kcal/mol] | PCM Error [9] [kcal/mol] | also measured
1 | Cc1c[nH]c2ccccc12 [3-methyl-indole] | 1.61 | 1.61 | 2.00 | 1.02 | 2.00 | 1.02 | 1.02 | 1.29 | 0.76 | 1.29 | 0.76 | 0.24 | 0.01 | -5.88 | -5.88 | 1.95 | -8.08 | -8.08 | 0.99 | – | hydration error ([2]; predicted vs experimental free energy of hydration): -1 kcal/mol
2 | CCC(=O)O [propionicacid] | −2.30 | −2.30 | 0.24 | 0.25 | 0.24 | 0.25 | 0.25 | 0.22 | 0.05 | 0.22 | 0.05 | 0.06 | 0.18 | -6.46 | -6.46 | 2.03 | -3.32 | -3.32 | 0.15 | 2.16 | SMD Error [10]: 0.96 kcal/mol; SMD free energy of hydration [11]: -5.50 kcal/mol; PCM free energy of hydration [12]: -4.30 kcal/mol
3 | Cc1c[nH]cn1 [Methylimidazole (His)] | – | −3.28 | – | – | 0.40 | 0.03 | – | – | – | – | – | 0.33 | 0.09 | – | -10.06 | – | – | -5.59 | – | – | logD Arrow MD Error ([3]; Table 4, error of MD logD vs experiment): 0.05; logD Arrow PIMD Error ([3]; Table 4, error of PIMD logD vs experiment): 0.04
4 | CCCCS [1-Butanethiol] | – | – | 1.15 | 0.50 | – | – | 0.50 | – | – | – | – | – | – | -0.99 | – | 3.06 | – | – | – | – | Arrow error ([2]; Table 5, error of Arrow PIMD8 hydration free energy vs experiment): 0.50 kcal/mol; GAFF error [13]: 0.69 kcal/mol; AMOEBA error [14]: 0.87 kcal/mol; GAFF [15]: -1.68 kcal/mol; AMOEBA [16]: -0.12 kcal/mol; Exp (hydration) ([5]; Table 5, free energy of hydration): -0.99 kcal/mol
5 | CCCCN [butanamine] | −0.23 | −0.23 | 1.17 | 0.28 | 1.17 | 0.28 | 0.28 | 0.81 | 0.16 | 0.81 | 0.16 | 0.06 | 0.06 | -4.24 | -4.24 | 1.55 | -3.92 | -3.92 | 0.11 | 1.44 | SMD Error [10]: 0.74 kcal/mol; SMD free energy of hydration [11]: -3.50 kcal/mol; PCM free energy of hydration [12]: -2.80 kcal/mol
